According to patent US20030224937A1, “Selective herbicidal composition” (priority 1994, published 2003):

Tested on: Maize
Experiment: Preemergence phytotoxic action of the herbicide of formula I and of mixtures of herbicide and safener of formula II on maize
Type: in vivo
Details: no safener, 22 days
From the text: Preemergence Phytoxic Action of the Herbicide of Formula I and of the Mixtures of Herbicide and Safener of Formula II on Maize
Maize is sown in standard soil in plastic pots. Immediately after sowing, the pots are sprayed with an aqueous suspension of the test substances (500 l of water/ha) prepared from one of the above formulations 1 to 8. The concentration of herbicide of formula I is 4000, 3000 and 2000 g/ha. The safener No. 1.006 is applied in a ratio to the herbicide of 1:18, 1:24 and 1:30. The test plants are afterwards cultivated in a greenhouse under optimum conditions. The phytotoxic action of the herbicide on the maize (percentage phytotoxicity) is evaluated after a test duration of 22 days.

With `CCc1cccc(C)c1N(C(=O)CCl)[C@@H](C)COC` [formula I, aRS,1′S(−)N-(1′-methyl-2′-methoxyethyl)-N-chloracetyl-2-ethyl-6-methylaniline] as the compound, how does the “% Phytotoxicity” value (herbicide of formula I 4000 g/ha, greenhouse) read?
Its value is 65%.

What about the “% Phytotoxicity” value (series b), herbicide of formula I 2000 g/ha (so in the source)) of the same compound?
The value was 55%.

And the “% Phytotoxicity” value (series c), herbicide of formula I 2000 g/ha)?
The value was 25%.
